Experiment [1] deals with BA/F3-KRAS(G12D) murine pro-B cell line stably expressing KRAS(G12D) (Homo sapiens, UniProt P01116, G12D, cells depend on it). The experiment in a line: CellTiter-Glo cancer cell line proliferation assay, BA/F3-KRAS(G12D). In kind it is cell-based. The settings on record: 24 hr, read-out: BAF3 at 24 hrs, IC50. On the procedure: The following cancer cell lines were employed: AsPC-1 human pancreatic adenocarcinoma (ATCC, #CRL-1682); A-427 human lung carcinoma (ATCC, #HTB-53); BA/F3-KRAS(G12D) murine pro-B cell line stably expressing KRAS(G12D) (Precedo, Hefei, China). Cell lines were cultured according to ATCC and recommendations. BA/F3-KRAS(G12D) cells were cultured in RPMI 1640 media with 10% fetal calf serum, 100 units/mL penicillin and […] streptomycin, and 1% glutamine.
CellTiter-Glo® Reagent Cancer Cell Line Proliferation Assays
Cells were plated in 96-well tissue culture plates at 4,000 cells/well and incubated at 37° C./5% CO2 for 24 hr in 100 μl of media. 3-fold serial dilutions of each test compound were prepared ranging from 20 μM to 1.02 nM. Cells were then treated with test compounds at various concentrations with a final concentration of 0.5% DMSO/well, and then incubated at 37° C./5% CO2 for 24 hr. 100 μl of CellTiter-Glo® Reagent (Promega Corporation, Madison, WI) was added to each well and processed according manufacturer's protocol. Results were analyzed and IC50-values were calculated in GraphPad 7 software.
In general terms: ATP-based viability assays read luminescence as a measure of living cells.

The subject of experiment [2] is AsPC-1 human pancreatic adenocarcinoma. As to the kind of experiment: CellTiter-Glo cancer cell line proliferation assay, AsPC-1. The format is cell-based. The following applies: Homo sapiens, ASPC1, 24 hr. In outline: (§1)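 Cells plated at 4,000/well, grown 24 h at 37 °C/5% CO2, then exposed to compound concentration series (0.5% DMSO final) for 24 h. Viability read by CellTiter-Glo luminescence; IC50 values calculated.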

A further experiment concerns the target T1, KRAS(G12D)/SOS1 (Homo sapiens, UniProt P01116, G12D).
T1 construct: purchased Cisbio 63ADK000CB16PEG
As to the kind of experiment: KRAS(G12D)/SOS1 homogeneous time-resolved fluorescence (HTRF) assay. The settings on record: absence of GTP, 4° C. for 3 hr. In kind it is binding. As to the method: The test compound was mixed and incubated with reaction components, incubated in a sealed plate at 4° C. for 3 hr and fluorescence was measured using a PerkinElmer Envision plate reader.
On the technique in general: In TR-FRET formats the signal depends on donor and acceptor labels being close together.

In experiment [3] the test system is A-427 human lung carcinoma. The experiment in a line: CellTiter-Glo cancer cell line proliferation assay, A-427. In kind it is cell-based. The settings on record: Homo sapiens, A-427, 24 hr, read-out: A427 at 24 hrs, IC50. Put shortly:
as §1

Counter-ions that a name gives are not always drawn.

Sequence of BA/F3-KRAS(G12D) murine pro-B cell line stably expressing KRAS(G12D) (P01116 whole entry G12D): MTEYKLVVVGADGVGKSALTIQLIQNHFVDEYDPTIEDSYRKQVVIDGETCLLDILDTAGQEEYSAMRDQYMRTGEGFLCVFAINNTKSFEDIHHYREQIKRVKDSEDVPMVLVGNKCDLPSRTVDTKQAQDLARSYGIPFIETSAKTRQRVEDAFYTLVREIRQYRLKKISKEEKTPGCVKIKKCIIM
T1 sequence (P01116 1-188 isoform P01116-2 G12D): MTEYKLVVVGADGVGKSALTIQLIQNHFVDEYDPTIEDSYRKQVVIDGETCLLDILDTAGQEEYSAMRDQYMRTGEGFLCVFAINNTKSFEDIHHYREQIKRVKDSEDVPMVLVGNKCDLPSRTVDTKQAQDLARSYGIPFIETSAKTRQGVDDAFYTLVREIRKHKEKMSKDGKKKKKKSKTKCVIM

Broadly, the IC50 is the concentration that gives 50% inhibition. Turning to `Cc1ncsc1-c1ccc(CNC(=O)[C@@H]2C[C@@H](O)CN2C(=O)[C@@H](NC(=O)C2CCN([C@H]3C[C@@H](COc4nc(N5CC6CCC(C5)N6)c5cnc(-c6cccc7ccccc67)c(F)c5n4)N(C)C3)CC2)C(C)(C)C)cc1` [Compound 23, 1-((3S,5S)-5-(((4-(3,8-diazabicyclo[3.2.1]octan-3-yl)-8-fluoro-7-(naphthalen-1-yl)pyrido[4,3-d]pyrimidin-2-yl)oxy)methyl)-1-methylpyrrolidin-3-yl)-N—((S)-1-((2S,4R)-4-hydroxy-2-((4-(4-methylthiazol-5-yl)benzyl)carbamoyl)pyrrolidin-1-yl)-3,3-dimethyl-1-oxobutan-2-yl)piperidine-4-carboxamide formate], in experiment [1], the GI50 is greater than 1000 nM. For the same compound, the IC50 (in experiment [2]; against KRAS(G12D)/SOS1; in experiment [3]) was greater than 1000 nM in each case.
As to `C#Cc1cccc2cccc(-c3ncc4c(N5CC6CCC(C5)N6)nc(OCCC5CCN(CC6CCN(c7cccc8c7C(=O)N(C7CCC(=O)NC7=O)C8=O)CC6)CC5)nc4c3F)c12` (stereo not shown) [Compound 3, 4-(4-((4-(2-((4-(3,8-diazabicyclo[3.2.1]octan-3-yl)-7-(8-ethynylnaphthalen-1-yl)-8-fluoropyrido[4,3-d]pyrimidin-2-yl)oxy)ethyl)piperidin-1-yl)methyl)piperidin-1-yl)-2-(2,6-dioxopiperidin-3-yl)isoindoline-1,3-dione hydrochloride], the GI50 in experiment [1] lay within 100 to 1000 nM. Further, the figures for the IC50 (against KRAS(G12D)/SOS1; in experiment [3]) were less than 100 nM and greater than 1000 nM, respectively.
The like results for `C#Cc1cccc2cccc(-c3ncc4c(N5CC6CCC(C5)N6)nc(OCCN5CCN(C(=O)C6CCN(c7ccc8c(c7)C(=O)N(C7CCC(=O)NC7=O)C8=O)CC6)CC5)nc4c3F)c12` (stereo not shown) [Compound 4, 5-(4-(4-(2-((4-(3,8-diazabicyclo[3.2.1]octan-3-yl)-7-(8-ethynylnaphthalen-1-yl)-8-fluoropyrido[4,3-d]pyrimidin-2-yl)oxy)ethyl)piperazine-1-carbonyl)piperidin-1-yl)-2-(2,6-dioxopiperidin-3-yl)isoindoline-1,3-dione formate] were, in that order, greater than 1000 nM, greater than 1000 nM and greater than 1000 nM.
Take `C#Cc1cccc2cccc(-c3ncc4c(N5CC6CCC(C5)N6)nc(OC[C@@H]5CC[C@H](CN6CCN(C(=O)C7CCN(c8ccc9c(c8)C(=O)N(C8CCC(=O)NC8=O)C9=O)CC7)CC6)N5C)nc4c3F)c12` (stereo partly drawn) [Compound 16, 5-(4-(4-(((2R,5S)-5-(((4-(3,8-diazabicyclo[3.2.1]octan-3-yl)-7-(8-ethynylnaphthalen-1-yl)-8-fluoropyrido[4,3-d]pyrimidin-2-yl)oxy)methyl)-1-methylpyrrolidin-2-yl)methyl)piperazine-1-carbonyl)piperidin-1-yl)-2-(2,6-dioxopiperidin-3-yl)isoindoline-1,3-dione hydrochloride]: the GI50 in experiment [1] was greater than 1000 nM. The IC50 at KRAS(G12D)/SOS1 was less than 100 nM; in experiment [3], greater than 1000 nM.
Turning to `C#Cc1cccc2cccc(-c3ncc4c(N5CC6CCC(C5)N6)nc(OCCN5CCN(CC6CCN(c7ccc8c(c7)C(=O)N(C7CCC(=O)NC7=O)C8=O)CC6)CC5)nc4c3F)c12` (stereo not shown) [Compound 1, 5-(4-((4-(2-((4-(3,8-diazabicyclo[3.2.1]octan-3-yl)-7-(8-ethynylnaphthalen-1-yl)-8-fluoropyrido[4,3-d]pyrimidin-2-yl)oxy)ethyl)piperazin-1-yl)methyl)piperidin-1-yl)-2-(2,6-dioxopiperidin-3-yl)isoindoline-1,3-dione hydrochloride], in experiment [1], the GI50 was greater than 1000 nM. Also, the IC50 was 100 to 1000 nM against KRAS(G12D)/SOS1 and greater than 1000 nM in experiment [3].
